From a melting point compilation (Tetko et al.; mined from patent text by program, amines drawn as free bases though some values may be those of a salt) come the findings set out here.

Broadly, the melting point is the temperature of the solid-liquid transition.

In turn, `O=S(=O)(N[C@H]1CC[C@H](CCN2CCC(c3cccc4c3CCO4)CC2)CC1)c1ccccc1` returned a melting point of 130 °C.

In turn, `CCOC(=O)c1cc(Cl)n2ncnc2n1` gave a melting point of 92.5 to 94 °C.

The compound `CCC(=O)NC1=NN(c2ccc(F)cc2)C(C)C1` (stereo not given) yielded a melting point of 125 to 126 °C.

For `O=C1CCNC(=O)C1C(=O)c1ccc(Cl)cc1[N+](=O)[O-]` (stereo not given), the melting point is 161 to 164 °C.

`COc1ccc(/C=C/C(=O)N2CC(CCl)c3c2cc(NC(=O)OC(C)(C)C)c2ccccc32)cc1` (stereo not given) returned a melting point of 185 to 186 °C.

Regarding `COc1ccc(OCCCCBr)c(C2(SC)Sc3ccccc3N(C)C2=O)c1` (stereo not given), the melting point is 102 to 103 °C.

Compound `CCCC(=O)c1cnc2c(OC)cc(O)cc2c1Nc1ccc(O)cc1C` came in with a melting point of 251 to 253 °C.

As to `COC(=O)CCCON1CCNC1=Nc1c(Cl)cccc1Cl`, the melting point is 95 to 96 °C.

On to `COC(=O)CCC(N=O)C(C)(C)Cl` (stereo not given), for which the melting point lay in the range of 90 to 91 °C.

Compound `CCN1N=C(c2ccc(F)cc2)c2cc(Cl)c(Cl)cc2CS1(=O)=O` displayed a melting point of 218 to 221 °C.

`CCOC(=O)Cc1c(-c2ccccc2)n[nH]c1-c1ccccc1` displayed a melting point of 117 to 118 °C.

Compound `O=C(Nc1ccc(-n2nc(-c3ccccc3)c3cccnc32)cc1)C(F)(F)F` displayed a melting point of 172 to 174 °C.

As for `Cc1nn(C(=O)NC(C)C)c(=O)n1C`, the melting point is 81 °C.

Take `COc1ccc(-n2c(=O)n(OCc3ccccc3)c(=O)c3cc(F)c(Cl)nc32)cc1`: the melting point lay in the range of 238 to 240 °C.

With `CC(=O)Nc1c(C(=O)c2ccccn2)[nH]c2cc(Cl)ccc12`, the melting point was in the range of 211 to 212 °C.

Regarding `Cn1c(CNC(=O)Nc2cccc(C(=O)O)c2)c(-c2ccccc2)c2cc(Cl)ccc2c1=O`, the melting point fell in the range of 236 to 239 °C.

`O=C1Cc2ccc3ccccc3c2C(c2ccccc2F)N1` (stereo not given) registered a melting point of 265 to 268 °C.

Take `O=C(c1ccccc1)N1CCC2(CCc3c2[nH]c2ccccc32)CC1`: the melting point is 231 to 232 °C.

Consider `CCc1ccc(OCCCCCN2CCN(c3nccs3)CC2)cc1`, for which the melting point was 125 to 127 °C.

On to `CN(C)Cc1cc(-c2ccc3c(c2)CCO3)nn(CC2CC2)c1=O`, for which the melting point fell in the range of 109 to 110 °C.

On to `O=C(NC1CCN(CCc2ccccc2F)C1)C12CC3CC(CC(C3)C1)C2` (stereo not given), for which the melting point lay within 106 to 108 °C.

`CCOC12CC(C)(C)C(O1)C(OC(=O)c1ccc([N+](=O)[O-])cc1)C=C2C` (stereo not given) gave a melting point of 144 to 146 °C.

`CC(C)(C)OC(=O)N1CCC(N2C(=O)OCc3ccccc32)CC1` yielded a melting point of 143 to 145 °C.

Compound `Oc1ccc(N2CCN(Cc3c[nH]c4ncccc34)CC2)cc1` displayed a melting point of 197 to 200 °C.

`N#Cc1ncc(Cl)cc1F` had a melting point of 72 to 73 °C.

In turn, `C=C(F)CONC(=O)c1nc(-c2ccc(Cl)c(OC)c2F)cc(N)c1Cl` showed a melting point of 172 to 174 °C.

In the case of `COc1ccc2c(c1)[C@H](CO)OC2=O`, the melting point lay within 137 to 140 °C.

The compound `CC(=O)Nc1ccc2c(c1)Cc1c(-c3ccccc3)n[nH]c1-2` yielded a melting point of 275 to 276 °C.

Regarding `CC1c2cccc3c2N(CC3)c2ccccc2N1CC#N` (stereo not given), the melting point was in the range of 148 to 150 °C.

With `CC1Cc2nc(N)nc(Cl)c2C1` (stereo not given), the melting point lay within 182 to 183 °C.

Consider `CCOc1ccc(-c2ccc3c(c2)C=C(C(=O)O)CCO3)cc1`, for which the melting point lay in the range of 269 to 271 °C.

In turn, `N=C(N)N1CCN(C23CC4CC(CC(C4)C2)C3)CC1` returned a melting point of 182 to 186 °C.

`CCOC(=O)c1sc2nc(SCCCN3CCN(c4ccccn4)CC3)[nH]c(=O)c2c1C` displayed a melting point of 160 to 162 °C.

Consider `CSc1c(OCC(=O)O)ccc2c1[nH]c1ccccc12`, for which the melting point is 179 to 180 °C.

`Cc1cc(N(C)Cc2oc(-c3ccc(C(F)(F)F)cc3)nc2C)ccc1OCC(=O)O`: the melting point is 156 to 157 °C.

On to `NNC1NS(=O)(=O)c2ccccc21` (stereo not given), for which the melting point was 249 °C.

Turning to `CCCCCc1ccc(C(=O)CCCC(=O)O)cc1`, the melting point lay in the range of 104 to 106 °C.

As for `COc1cc(COc2cccc(O)c2C)cc(OC)c1`, the melting point was 63 to 69 °C.

On to `COC(=O)c1ccc(C(=O)N2CCN(c3ncccc3NCC(C)C)CC2)nc1`, for which the melting point lay within 82 to 84 °C.

Consider `O=C(O)c1nn(Cc2ccccc2)c2c1CCc1cc(OCc3cncnc3)ccc1-2`, for which the melting point lay in the range of 236 to 237 °C.

`COc1ccc(C2NC(=O)C2OC(C)=O)cc1` (stereo not given) yielded a melting point of 110 to 111 °C.

On to `CC(=O)OC1c2ccccc2Oc2ccccc21`, for which the melting point is 109 to 112 °C.

Consider `O=C(c1ccc(F)cc1)C1(c2ccc(F)cc2)CCN(Cc2ccccc2)CC1`, for which the melting point lay within 136 to 138 °C.

In the case of `COc1ccc(-c2cc(=O)n(CCc3ccc(Cl)cc3)nc2-c2ccc(OC)cc2)cc1`, the melting point fell in the range of 133 to 134 °C.

Regarding `Cc1ccc(Cl)c(N)c1C(N)=O`, the melting point lay within 124 to 128 °C.

In turn, `COc1ccc(C2C(Oc3ccccc3)C(=O)N2c2cc(OC)c(OC)c(OC)c2)cc1O` (stereo not given) had a melting point of 176 to 180 °C.

As to `CCC(=Cc1cccc([N+](=O)[O-])c1)[N+](=O)[O-]`, the melting point was in the range of 68 to 72 °C.

For the compound `CC(=O)N(CCOc1ccc(CC2SC(=O)NC2=O)cc1)c1ncccn1` (stereo not given), the melting point turned out to be 137 °C.

Compound `CC(C)(C)OC(=O)NCC(=O)Nc1cccc(NC(=N)N2CCCC2)c1` gave a melting point of 182 to 183 °C.

Turning to `CCOC(=O)C=C1CN=C(c2ccccc2Cl)c2cc(Cl)ccc2N1`, the melting point lay in the range of 103 to 105 °C.

In turn, `CC(C)(C)OC(=O)N1CC=C(c2ccnc(C(=O)N(O)Cc3ccccc3)c2)CC1` showed a melting point of 125 °C.

For the compound `CN(N)C(=S)Nc1ccc(F)cc1`, the melting point was 148 to 150 °C.

Take `CN1Cc2c(C#CC(C)(C)O)ncn2-c2cccc(Cl)c2C1=O`: the melting point is 194 to 195 °C.

For `COc1cc(CCC(=O)Nc2nc3ccccc3s2)ccc1C(=O)/C=C/C(=O)O`, the melting point lay within 260 to 261 °C.

The compound `C=CCOc1ccc(C(=O)C=Cc2cccc(OC)c2OC)cc1` registered a melting point of 98 to 99 °C.

`Cc1cc(C)c(C(CO)c2ccc(C(C)C)cc2)c(O)c1` (stereo not given) showed a melting point of 101 to 102 °C.

Consider `N#Cc1c(Cl)c2cc(Cl)ccc2n(Cc2ccccc2)c1=O`, for which the melting point came out at 243 °C.

As for `CC(C)(C)c1cc(C(=O)c2ccccc2C(=O)O)cc(C(C)(C)C)c1O`, the melting point is 173 to 174 °C.

Take `CNC(=NS(=O)(=O)c1ccc(C)cc1)Nc1cc(C(C)c2ccc(-c3ccccc3)c(F)c2)on1` (stereo not given): the melting point is 125 to 127 °C.

The compound `CC(=O)N=C1C(OC(C)=O)=C(NC(C)=O)C2CC(=O)CC1C2NC(C)=O` (stereo not given) registered a melting point of 174 to 176 °C.

The compound `C=CCN1C(=O)C2=C(c3ccccc3)N(CC=C)C(=O)C2=C1c1ccccc1` registered a melting point of 216 to 217 °C.

Turning to `COC(=O)C1=Cc2cc(-c3ccc(F)cc3)ccc2S(=O)(=O)CC1`, the melting point was 180 to 183 °C.

On to `c1ccc(C(=C2CCN(CCN3CCNCC3)CC2)c2ccccc2)cc1`, for which the melting point lay in the range of 73 to 75 °C.

`O=C1c2ccccc2S(=O)(=O)N1CCNCC1COc2ccccc2O1` (stereo not given) gave a melting point of 181 °C.

On to `COc1nc(N2CCOCC2)cnc1NS(=O)(=O)c1cccc(Cl)c1Cl`, for which the melting point lay in the range of 167 to 168 °C.

Compound `CCc1nc2ncnc(-c3c(C)cc(C)cc3C)c2[nH]1` displayed a melting point of 215 to 217 °C.

Consider `CCCCOc1nc(N)c2[nH]c(=O)n(CCCCNS(=O)(=O)c3ccc(CCC(=O)O)cc3)c2n1`, for which the melting point lay within 210 to 211 °C.

In turn, `COc1ccccc1N1CCN(C(=O)CCCCN2CC=C(c3c[nH]c4cc(F)ccc34)CC2)CC1` yielded a melting point of 78 to 81 °C.

On to `O=S1CCOCC1c1cccnc1` (stereo not given), for which the melting point is 74 to 76 °C.

In the case of `COc1cc(CN2CCN(c3ccccc3F)CC2)ccc1OC(=O)N(C)C`, the melting point lay within 130 to 133 °C.

Regarding `CCCCc1nc2c(N)nc3ccc(OCCC4CCN(C(=O)C(C)C)CC4)cc3c2n1C`, the melting point was 189 to 193 °C.

Compound `COC(=O)C1CCC2C3CCC4CC(=O)CCC4(C)C3C(NCCC(C)C)CC12C` (stereo not given) registered a melting point of 86 to 89 °C.

For the compound `O=C(O)c1cccnc1Oc1cccc(C(F)(F)F)c1`, the melting point lay in the range of 149 to 151 °C.

Regarding `CC(c1ccc(-c2ccccc2)o1)N(O)C(N)=O` (stereo not given), the melting point is 133 to 136 °C.

Take `CC(C)=NOc1cc(OCc2ccccc2)ccc1C#N`: the melting point turned out to be 102 °C.

The compound `CCS(=O)(=O)CCC(=O)NNC(=O)N1Cc2ccccc2Oc2ccc(NS(C)(=O)=O)cc21` displayed a melting point of 211 to 212 °C.

`Oc1ccc2c(c1)COc1c-2cc2ccc(O)cc2c1-c1cccs1` gave a melting point of 233 to 236 °C.

As for `CC(C)(CCCOc1cccc(C(F)(F)F)c1)C(=O)O`, the melting point lay in the range of 96 to 97 °C.

Compound `Cc1c(-c2ccccc2)c(N2CC[C@](C)(N)C2)c2oc(C(=O)N(C)C)nc2c1C#N` showed a melting point of 202 to 204 °C.

`Cc1nc(-c2cccs2)c2nc(-c3ccccc3)cc-2[nH]1` registered a melting point of 178 to 179 °C.

As to `CC(C#N)Oc1cccc(CN2C(=O)c3cccc(NC(=O)c4ccc(Cl)s4)c3C2=O)c1` (stereo not given), the melting point was determined as 88 °C.

`CCCN(c1ccncc1[N+](=O)[O-])n1ccc2ccccc21` yielded a melting point of 84 to 86 °C.

Consider `O=C1c2ccccc2C(=O)N1OCc1ccc2c(c1F)OC(c1ccccc1)(c1ccccc1)O2`, for which the melting point lay within 177 to 179 °C.

As for `COc1ccc(N(N)c2nc(OCc3cccc(OC)c3)ncc2F)cc1`, the melting point lay within 96 to 100 °C.

For the compound `Clc1ccc(N2CCN3CCC2CC3)nn1`, the melting point is 127 to 128 °C.

Consider `O=C1c2ccc([N+](=O)[O-])cc2C(=O)N1C1CCN(Cc2ccccc2)CC1`, for which the melting point was 240 to 242 °C.

In turn, `CC=NN(C(=O)c1ccc(C)cc1)c1ccc2c(c1)OCCO2` returned a melting point of 121 to 123 °C.

With `COc1ccc(NS(=O)(=O)c2cc3cc(Cl)ccc3oc2=O)cc1`, the melting point was in the range of 175 to 177 °C.

Take `CCOCN(C(=O)N(COCc1ccccc1)c1nc(OCC(F)(F)F)cc(OCC(F)(F)F)n1)c1ccc(C(F)(F)F)cc1`: the melting point lay within 62 to 65 °C.

`CC(C)(C)OC(=O)NCCNc1n[nH]c2ncnc(Nc3cccc(Cl)c3)c12` gave a melting point of 206 to 208 °C.
